Patent publication US6746688B1, “Apparatus for the transdermal treatment of Parkinson's disease” (Neuroderm Ltd., priority 1996, dated 2004)
Read-outs that look alike come from different tables or passages of the source.

Legend:
[1] = Solubility of LD derivatives in potential solvents; format: physicochemical
Text: The solubility of LD, LD methyl ester (LDME) and LD ethyl ester (LDEE) was examined in several potential solvents, with increasing amounts of the three LD derivatives being added to a constant volume of 5% propionic acid in water or 10% propionic acid in propylene glycol.

Parkinson's disease = conditions: Refs. 19-21; cited from earlier work
[2] = Pilot experiment of transdermal delivery, LDEE in serum by HPLC with electrochemical detector; format: in vivo; conditions: two human volunteers, 24 h dermal exposure, propylene glycol with 10% propionic acid and 5% sodium deoxycholate or sodium dodecylsulfate
Experimental: In a pilot experiment of transdermal delivery, two human volunteers were exposed for 24 h to LDEE dissolved in propylene glycol containing 10% propionic acid and 5% of either sodium deoxycholate (one volunteer) or sodium dodecylsulfate (one volunteer). Blood samples were taken at various times after the application of the LDEE on the skin and LDEE in the serum was separated on high performance liquid chromatography and determined with an electrochemical detector. The protocol and the details of this pilot study are described in the enclosed appendix. […] These levels are considered appropriate for obtaining therapeutic effect in Parkinson's patients.

[3] = Stability of LDEE in formulations by thin layer chromatography; format: physicochemical
Experimental: The stability of LDEE was tested in several combinations of potential components of the formulation. For this purpose, 500 mg LDEE was dissolved in 1 ml 5% propionic acid just before the beginning of the stability experiment. In parallel, 500 mg LDEE was dissolved in 1 ml propylene glycol containing 10% propionic acid. These preparations of LDEE were used as stock solutions for several tested formulations as follows: […]
1) LDEE in aqueous solution of 5% propionic as prepared above.
2) Same solution as in No. 1 above+5% sodium deoxycholate.
3) Same solution as in No. 1 above+5% sodium dodecylsulfate.
4) Same solution as in No. 1 above+5% Tween-20.
5) Same solution as in No. 1 above+5% tritonX100.
6) Same solution as in No. 1 above+glycerol at a ratio of 1:1.
7) Same solution as in No. 1 above+propylene glycol at a ratio of 2:1.
8) LDEE in propylene glycol containing 10% propionic acid.
9) Same solution as in No. 8 above+5% sodium deoxycholate.
10) Same solution as in No. 8 above+5% sodium dodecylsulfate.
The above LDEE formulations were run on a thin layer chromatography (on silica gel—Merk Art. 5735; and on cellulose—Merk Art. 5574) for a qualitative detection of LDEE and its degradative products. The various LDEE formulations were kept at room temperature for several days and separation of the LDEE and its degradative products on the thin layer chromatography were repeated at various times after dissolving the LDEE. The running solvents for the thin layer chromatography were:
a) Propanol: Butanoic Acid: Water (20:4:10).
b) Dichloromethane: Acetone: Ethyl-Acetate: Methanol (35:15:1:0.25).

solubility [1] | solubility ([1]; 5% propionic acid in water) | solubility ([1]; 10% propionic acid in propylene glycol) | blood levels of LDEE after dermal application [2] | degradative products on thin layer chromatography ([3]; 24 h after dissolving, room temperature, formulations that contained tritonX100) | degradative products on thin layer chromatography ([3]; 24 h after dissolving, room temperature, other formulations (without tritonX100)) | degradative products on thin layer chromatography ([3]; 48 h after dissolving, room temperature, all the aqueous solutions) | degradative products on thin layer chromatography ([3]; immediately after the preparation, all formulations) | time LDEE was stable ([3]; propylene glycol-based formulations, room temperature) | SMILES | LD plasma levels at which therapeutic effects were noticed (Parkinson's disease) | order of degradation among aqueous formulations ([3]; 48 h after dissolving, room temperature, aqueous solutions)
negligible amounts |  |  |  |  |  |  |  |  | N[C@@H](Cc1ccc(O)c(O)c1)C(=O)O [LD, Levodopa] | 300 to 800 ng/mL | 
 | negligible amounts | negligible amounts |  |  |  |  |  |  | COC(=O)[C@@H](N)Cc1ccc(O)c(O)c1 [LDME, LD methyl ester] |  | 
at least 660 mg in 1 ml |  |  | about 200 ng/ml | Degradative products appeared | did not show significant degradation | degradative products appeared | No degradative products were seen | more than 48 h | CCOC(=O)[C@@H](N)Cc1ccc(O)c(O)c1 [LDEE, levodopa-ethyl-ester] |  | formulation containing tritonX100>formulation containing Tween-20 >formulation containing sodium dodecylsulfate=formulation containing sodium deoxycholate
